Results as given in the supplement of paper PMC13380429.

Tests used:
Conditions in all cases: 72 h
[1] = tested on: Calu-3; assay: relative viability EC50 (midpoint between 100% and the lowest measured viability); higher = less toxic
[2] = tested on: HepG2; assay: as above
[3] = tested on: U2OS; assay: as above
[4] = tested on: Caco-2; assay: as above
[5] = tested on: Vero E6; assay: as above
[6] = tested on: Calu-3; assay: cell viability relative to DMSO; higher = less toxic
[7] = tested on: HepG2; assay: as above
[8] = tested on: U2OS; assay: as above
[9] = tested on: Caco-2; assay: as above
[10] = tested on: Vero E6; assay: as above
[11] = tested on: Calu-3; assay: drug sensitivity score (DSS) for viability; higher = more toxic; extreme values may be limits of the assay
[12] = tested on: HepG2; assay: as above
[13] = tested on: U2OS; assay: as above
[14] = tested on: Caco-2; assay: as above
[15] = tested on: Vero E6; assay: as above

SMILES | relative viability EC50 [1] | relative viability EC50 [2] | relative viability EC50 [3] | relative viability EC50 [4] | relative viability EC50 [5] | cell viability ([6]; 1 nM) | cell viability ([6]; 10 nM) | cell viability ([6]; 100 nM) | cell viability ([6]; 1000 nM) | cell viability ([6]; 10000 nM) | cell viability ([7]; 1 nM) | cell viability ([7]; 10 nM) | cell viability ([7]; 100 nM) | cell viability ([7]; 1000 nM) | cell viability ([7]; 10000 nM) | cell viability ([8]; 1 nM) | cell viability ([8]; 10 nM) | cell viability ([8]; 100 nM) | cell viability ([8]; 1000 nM) | cell viability ([8]; 10000 nM) | cell viability ([9]; 1 nM) | cell viability ([9]; 10 nM) | cell viability ([9]; 100 nM) | cell viability ([9]; 1000 nM) | cell viability ([9]; 10000 nM) | cell viability ([10]; 1 nM) | cell viability ([10]; 10 nM) | cell viability ([10]; 100 nM) | cell viability ([10]; 1000 nM) | cell viability ([10]; 10000 nM) | drug sensitivity score [11] | drug sensitivity score [12] | drug sensitivity score [13] | drug sensitivity score [14] | drug sensitivity score [15]
O=C(Oc1cccc2cccnc12)c1ccccc1 [benzoxiquine] | > 10 µM | 3.26 µM | > 10 µM | > 10 µM | > 10 µM | 106% | 94.3% | 95.6% | 96% | 93.7% | 104% | 103% | 102% | 102% | 7% | 99.7% | 92.3% | 96.3% | 92.4% | 98.6% | 102% | 99.6% | 102% | 99.2% | 98.1% | 98.5% | 101% | 99.5% | 98.3% | 93.8% | 0 | 5.1 | 0 | 0 | 0
COc1cc2c(cc1OC)[C@@]13CCN4CC5=CCO[C@H]6CC(=O)N2[C@H]1[C@H]6[C@H]5C[C@H]43 [brucine] | > 10 µM | > 10 µM | > 10 µM | > 10 µM | > 10 µM | 110% | 101% | 91.4% | 98% | 97.1% | 109% | 103% | 90.2% | 83.6% | 96.9% | 96.8% | 101% | 101% | 96.5% | 96.9% | 104% | 89.9% | 112% | 106% | 91.7% | 106% | 92.3% | 95.2% | 99% | 98.9% | 0 | 2.6 | 0 | 0 | 0
CCCC(=O)Nc1ncnc2c1ncn2[C@@H]1O[C@@H]2COP(=O)(O)O[C@H]2[C@H]1OC(=O)CCC [bucladesine] | > 10 µM | > 10 µM | > 10 µM | > 10 µM | > 10 µM | 100% | 92.9% | 92.9% | 94.3% | 108% | 101% | 101% | 93.9% | 99% | 96% | 105% | 94.8% | 103% | 97.2% | 100% | 110% | 101% | 107% | 93.3% | 91.9% | 98.5% | 104% | 97.8% | 104% | 95.2% | 0 | 0 | 0 | 0 | 0
